{"source": "patent US20130324615A1", "about": "“BIODEGREDATION SUPPRESSION SOLUTION FOR FORENSIC SAMPLES” (Indiana University Research and Technology Corporation, priority 2011, published 2013)", "type_in_all_cases": "cell-based", "key": {"[1]": {"system": "bacteria grown from soil sample extract", "assay": "Anti-microbial agent screening: soil-extract broth cultures treated with agent, then sub-cultured", "settings": "confirmation on TSA plates", "description": "In anti-microbial agent screening studies, a soil sample was extracted with a 0.9% saline solution of sodium chloride (NaCl) and water (H2O) and a sample loop was used to transfer approximately 10 μL of extract to a test tube containing sterile Tryptic Soy Broth (TSB). […] The broth samples were then treated with anti-microbial agents at a known concentration. The treated broth samples were then sub-cultured in another sterile TSB, minimal media (MM) or spread on sterile Tryptic Soy Agar (TSA) plates. MM is a nutrient deficient growth medium where citric acid is the only carbon source and which is selective against many species of bacteria. Bacterial growth was confirmed by visible inspection of the secondary TSB, MM or TSA plate. The broth/plate samples were then evaluated for how long they remained free of bacterial growth. […] The column labeled Bacterial Confirmatory Analysis provides the subculture media used to confirm bacterial growth."}, "bacteria of soil sample": {"system": "bacteria of soil sample", "assay": "Culturing study: soil sample directly treated with anti-microbial agent, extract inoculated into sterile TSB", "settings": "concentration not given", "description": "Additional culturing studies were carried out where a soil sample was directly treated with an anti-microbial agent. The exposure time of the soil sample to the anti-microbial was either 60 seconds or 24 hours. The extract was then sampled and used to inoculate a sterile TSB. The amount of time for bacterial growth to become visible was then noted."}, "[2]": {"system": "bacteria from saline extract of a soil sample", "assay": "Growth curve by UV-Vis absorbance at 600 nm of TSB inoculated with saline soil extract", "settings": "TSB treated with 1.8% triclosan in 0.1 M NaOH or with bleach; room temperature, up to 80 days", "description": "FIG. 1 describes a growth curve constructed using UV-vis analysis of cultures taken from soil exposed to water, 0.1 M sodium hydroxide (NaOH), 1.81% triclosan and bleach.\nA final culturing study was conducted where a set of culture tubes containing sterile TSB were inoculated with a saline extract of a soil sample. One set of culture tubes contained only sterile TSB, a second set contained sterile TSB treated with 0.1 M NaOH, a third set contained sterile TSB treated with 1.8% triclosan in 0.1 M NaOH and a fourth set contained sterile TSB treated with bleach. The culture tubes were allowed to stand at room temperature for periods of up to 80 days. Growth was then monitored three times daily for up to 4 days by a single beam diode array UV-Vis Spectrophotometer in the 400 nm to 800 nm range. The absorbance of the samples at 600 nm was monitored over the course of the study."}}}
{"compound": "Benzalkonium chloride [Benzalkonium chloride in water]", "values": [{"measurement": "Effective Period (time sub-culture remained free of bacterial growth)", "setting": "[1]; agent at 1%", "value": 0, "unit": "days"}]}
{"compound": "[H]/N=C(\\N/C(=N/[H])NCCCCCCNC(=N)NC(=N)Nc1ccc(Cl)cc1)Nc1ccc(Cl)cc1", "note": "[Chlorhexidine in water, Chlorhexidine]", "values": [{"measurement": "Effective period (time for bacterial growth to become visible, cloudy)", "setting": "bacteria of soil sample; soil exposure time 60 s", "value": "Cloudy after 8 days"}, {"measurement": "Effective period (time for bacterial growth to become visible, cloudy)", "setting": "bacteria of soil sample; soil exposure time 24 hrs", "value": "Still clean after 36 days"}, {"measurement": "Effective Period (time sub-culture remained free of bacterial growth)", "setting": "[1]; agent at 14%", "value": 0, "unit": "days"}]}
{"compound": "Oc1cc(Cl)ccc1Oc1ccc(Cl)cc1Cl", "note": "[triclosan, 2,4,4′-trichloro-2′-hydroxydiphenyl ether]", "values": [{"measurement": "Bacterial growth by sample absorbance at 600 nm (FIG. 1)", "setting": "[2]", "value": "prevent bacterial growth"}]}
{"compound": "O=S(=O)([O-])[O-].[Cu+2]", "note": "[Copper Sulfate in water, Copper Sulfate]", "values": [{"measurement": "Effective Period (time sub-culture remained free of bacterial growth)", "setting": "[1]; agent at 5%", "value": 0, "unit": "days"}]}
{"compound": "CC(C)(C)CC(C)(C)c1ccc(OCCOCC[N+](C)(C)Cc2ccccc2)cc1", "note": "[Benzethonium chloride in water, Benzethonium chloride]", "values": [{"measurement": "Effective Period (time sub-culture remained free of bacterial growth)", "setting": "[1]; agent at 1%", "value": 0, "unit": "days"}]}
